Source: ChEMBL document CHEMBL3352091, “Natural product-based design, synthesis and biological evaluation of anthra[2,1-d]thiazole-6,11-dione derivatives from rhein as novel antitumour agents” (Eur J Med Chem, 2014)

Legend:
A549 [1] = test: Antitumor activity against human A549 cells after 3 days by SRB assay; type: functional, cell-based; conditions: A549, 72 h
HeLa [2] = test: Antitumor activity against human HeLa cells after 3 days by SRB assay; type: functional, cell-based; conditions: 72 h
A549 [3] = test: Potency index, ratio of IC50 for rhein to IC50 for test compound against human A549 cells after 3 days by SRB assay; type: functional
HeLa [4] = test: Potency index, ratio of IC50 for rhein to IC50 for test compound against human HeLa cells after 3 days by SRB assay; type: functional

| Structure (SMILES) | IC50 (A549 [1]) [µM] | IC50 (HeLa [2]) [µM] | Ratio IC50 (A549 [3]) | Ratio IC50 (HeLa [4]) |
| --- | --- | --- | --- | --- |
| O=C1c2c(O)cccc2C(=O)c2c1c(O)cc1nc(N3CCCCC3)sc21 | > 100 | 55.8 | – | – |
| O=C1c2c(O)cccc2C(=O)c2c1c(O)cc1nc(N3CCCC3)sc21 | 148 | 44.8 | – | – |
| O=C1c2c(O)cccc2C(=O)c2c1c(O)cc1nc(N3CCCCCC3)sc21 | 39.4 | 41 | – | – |
| CC1CCN(c2nc3cc(O)c4c(c3s2)C(=O)c2cccc(O)c2C4=O)CC1 | 66 | 60.4 | – | – |
| O=C1c2c(O)cccc2C(=O)c2c1c(O)cc1nc(N3CCCCC3CCO)sc21 (centres undefined) | 19.6 | 16.7 | – | – |
| O=C1c2c(O)cccc2C(=O)c2c1c(O)cc1nc(N3CCCC(O)C3)sc21 (centres undefined) | 21.1 | 26.9 | – | – |
| CC(C)N(c1nc2cc(O)c3c(c2s1)C(=O)c1cccc(O)c1C3=O)C(C)C | > 100 | 118 | – | – |
| CCN(CC)c1nc2cc(O)c3c(c2s1)C(=O)c1cccc(O)c1C3=O | 108 | 86.7 | – | – |
| O=C1c2c(O)cccc2C(=O)c2c1c(O)cc1nc(N3CCOCC3)sc21 | 33.4 | 30.3 | – | – |
| CN(C)C1CCN(c2nc3cc(O)c4c(c3s2)C(=O)c2cccc(O)c2C4=O)CC1 | 6.3 | 11.8 | – | – |
| O=C1c2c(O)cccc2C(=O)c2c1c(O)cc1nc(N3CCN(C4CC4)CC3)sc21 | 65.7 | 58.1 | – | – |
| CCOC(=O)N1CCN(c2nc3cc(O)c4c(c3s2)C(=O)c2cccc(O)c2C4=O)CC1 | 54.8 | 68.4 | – | – |
| CC(C)N1CCN(c2nc3cc(O)c4c(c3s2)C(=O)c2cccc(O)c2C4=O)CC1 | 15 | 14.8 | – | – |
| CCN1CCN(c2nc3cc(O)c4c(c3s2)C(=O)c2cccc(O)c2C4=O)CC1 | 5.4 | 4.3 | 30 | 30 |
| CN1CCN(c2nc3cc(O)c4c(c3s2)C(=O)c2cccc(O)c2C4=O)CC1 | 20.2 | 27.4 | – | – |
| O=C1c2c(O)cccc2C(=O)c2c1c(O)cc1nc(N3CCN(CCO)CC3)sc21 | 6.5 | 4.5 | – | – |

| Structure (SMILES) | IC50 (A549 [1]) [µM] | IC50 (HeLa [2]) [µM] | Ratio IC50 (A549 [3]) | Ratio IC50 (HeLa [4]) |
| --- | --- | --- | --- | --- |
| O=CN1CCCN(c2nc3cc(O)c4c(c3s2)C(=O)c2cccc(O)c2C4=O)CC1 | 15.2 | 19.7 | – | – |
| CN(CC(O)CO)c1nc2cc(O)c3c(c2s1)C(=O)c1cccc(O)c1C3=O (centres undefined) | 30.4 | 23.2 | – | – |
| CN(CCO)c1nc2cc(O)c3c(c2s1)C(=O)c1cccc(O)c1C3=O | 45.9 | 30.6 | – | – |
| O=C1c2c(O)cccc2C(=O)c2c1c(O)cc1nc(N3CCN(CCN4CCCC4)CC3)sc21 | 70.3 | 81.1 | – | – |
| O=C1c2c(O)cccc2C(=O)c2c1c(O)cc1nc(N3CCN(CCN4CCCCC4)CC3)sc21 | 46.4 | 86.9 | – | – |
| CC1CCN(CCN2CCN(c3nc4cc(O)c5c(c4s3)C(=O)c3cccc(O)c3C5=O)CC2)CC1 | 38.2 | 82.1 | – | – |
| O=C1c2c(O)cccc2C(=O)c2c1c(O)cc1nc(N3CCN(CCN4CCOCC4)CC3)sc21 | > 100 | > 100 | – | – |
| CCCCN(CCCC)CCN1CCN(c2nc3cc(O)c4c(c3s2)C(=O)c2cccc(O)c2C4=O)CC1 | 57.1 | > 100 | – | – |
| CCN(CC)CCN1CCN(c2nc3cc(O)c4c(c3s2)C(=O)c2cccc(O)c2C4=O)CC1 | > 100 | > 100 | – | – |
| CN(C)CCN1CCN(c2nc3cc(O)c4c(c3s2)C(=O)c2cccc(O)c2C4=O)CC1 | 32.8 | > 100 | – | – |
| CC(C)N(CCN1CCN(c2nc3cc(O)c4c(c3s2)C(=O)c2cccc(O)c2C4=O)CC1)C(C)C | > 100 | > 100 | – | – |
| CCN1CCN(CCN2CCN(c3nc4cc(O)c5c(c4s3)C(=O)c3cccc(O)c3C5=O)CC2)CC1 | 23.4 | 71.3 | – | – |
| CN1CCN(CCN2CCN(c3nc4cc(O)c5c(c4s3)C(=O)c3cccc(O)c3C5=O)CC2)CC1 | 24.2 | 80.1 | – | – |
| CC(C)N1CCN(CCN2CCN(c3nc4cc(O)c5c(c4s3)C(=O)c3cccc(O)c3C5=O)CC2)CC1 | 54 | > 100 | – | – |
| O=C(O)c1cc(O)c2c(c1)C(=O)c1cccc(O)c1C2=O [RHEIN] | 95.8 | 92.2 | – | – |
